Source: patent US9815851B2, “Pyrrolo carboxamides as modulators of orphan nuclear receptor RAR-related orphan receptor-gamma (RORγ, NR1F3) activity and for the treatment of chronic inflammatory and autoimmune diseases” (PHENEX PHARMACEUTICALS AG, priority 2011, dated 2017)
Where two headings read alike, the source gives them in different places.

How the values were obtained:
[1] = target: T1, RORγ ligand binding domain (LBD) (Homo sapiens, UniProt P51449); test: TR-FRET Activity Assay (ligand sensing, RORγ-LBD / coactivator peptide interaction, LANCE); type: biochemical
T1 construct: made in house; host or cells: E. coli BL-21 (BL3), vector pDEST15
T1 sequence (P51449 269-508 limits assumed): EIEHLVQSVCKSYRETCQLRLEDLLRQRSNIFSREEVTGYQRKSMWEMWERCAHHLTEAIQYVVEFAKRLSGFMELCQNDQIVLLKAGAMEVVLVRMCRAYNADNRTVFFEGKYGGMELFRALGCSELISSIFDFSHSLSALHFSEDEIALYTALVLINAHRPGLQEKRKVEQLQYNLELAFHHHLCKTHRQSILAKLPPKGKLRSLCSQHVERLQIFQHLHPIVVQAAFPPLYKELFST

RORγ = target: T2, RORγ (UniProt P51449); test: RORγ Gal4 Reporter Gene Assay in 293T cells (firefly and renilla luciferase); type: cell-based, human
T2 sequence (P51449 1-518): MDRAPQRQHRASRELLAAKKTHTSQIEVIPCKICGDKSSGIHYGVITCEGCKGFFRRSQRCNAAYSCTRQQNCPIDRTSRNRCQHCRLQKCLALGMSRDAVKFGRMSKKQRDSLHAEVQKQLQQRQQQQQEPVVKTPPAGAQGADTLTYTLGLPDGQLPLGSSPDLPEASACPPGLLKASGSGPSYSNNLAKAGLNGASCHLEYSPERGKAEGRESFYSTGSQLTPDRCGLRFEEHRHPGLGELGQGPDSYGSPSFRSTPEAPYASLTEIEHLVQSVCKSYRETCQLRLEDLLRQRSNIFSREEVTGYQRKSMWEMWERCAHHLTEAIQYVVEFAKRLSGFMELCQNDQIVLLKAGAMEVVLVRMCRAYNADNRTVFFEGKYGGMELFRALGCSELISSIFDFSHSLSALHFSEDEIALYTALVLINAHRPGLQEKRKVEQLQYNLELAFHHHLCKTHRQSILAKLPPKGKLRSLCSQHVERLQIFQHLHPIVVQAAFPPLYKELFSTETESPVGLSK

[2] = first value of the cell FRET/FF/REN, TR-FRET activity assay, read-out: pIC50 (FRET) (converted)
[3] = second value of the cell, Gal4 reporter gene assay in 293T cells, firefly luciferase
[4] = third value of the cell, Gal4 reporter gene assay in 293T cells, renilla normalised luciferase

Row | SMILES | IC50 [1, 2] [nM] | pIC50 (FF) (RORγ; [3]) | pIC50 (REN) (RORγ; [4]) | IC50 [1] [nM] | pIC50 (FF) (RORγ) | pIC50 (REN) (RORγ)
1 | Cc1c(C(=O)NC2CCS(=O)(=O)CC2)cc(-c2cc(C(C)(C)O)cc(C3(C)CC3)c2)n1CC1CCCCC1 [17/321] | 1000 | 7.3 | 7.3 |  |  | 
2 | COC(=O)[C@H]1C[C@H](NC(=O)c2cc(-c3cc(C(C)(C)C)cc(C4(C)CC4)c3)n(CC3CCCCC3)c2F)C1 [20/2] | 316 | 7.0 | 7.2 |  |  | 
3 | COC(C)(C)CNC(=O)c1cc(-c2cc(C(C)(C)C)cc(C(C)(C)C)c2)n(CC2CCCCC2)c1C [1/35] |  |  |  | 126 | 6.9/6.9/6.9 | 6.9/6.9/6.9
4 | Cc1c(C(=O)NCC(C)(C)CC(N)=O)cc(-c2cc(C(C)(C)C)c3c(c2)C2(CCO3)CC2)n1CC1CCCCC1 [17/20] | 398 | 7.1 | 7.1 |  |  | 
5 | Cc1c(C(=O)NCC2(O)CCOCC2)cc(-c2cc(C(C)(C)C)c3c(c2)C2(CCO3)CC2)n1CC1CCCCC1 [1/99] |  |  |  | 398 | 6.4/7.1/7.2 | 6.4/7.1/7.2
6 | Cc1c(C(=O)NC2CCOCC2)cc(-c2ccc(C(C)(C)C(=O)NC(C)(C)C)c(C(F)(F)F)c2)n1CC1CCCCC1 [17/132] | 3980 | 6.3 | 6.2 |  |  | 
7 | Cc1c(C(=O)N[C@@H]2CCOC2)cc(-c2cc(C(C)(C)C)cc(C3(C)CC3)c2)n1CC1CCCCC1 [17/66] |  | 7.4 | 7.4 | 158 |  | 
8 | Cc1c(C(=O)NCC2(C(N)=O)CCOCC2)cc(-c2ccc(S(=O)(=O)NC(C)(C)C)c(C(C)(C)C)c2)n1CC1CCCCC1 [17/90] |  |  |  | 1580 | 5.8/7.9/8.0 | 5.8/7.9/8.0
9 | Cc1c(C(=O)NC2CCOCC2)cc(-c2ccc(C(=O)NC3CCCCC3)c(C(C)(C)C)c2)n1CC1CCCCC1 [6/6] |  |  |  | 631 | 6.2/6.8/6.7 | 6.2/6.8/6.7
10 | Cc1c(-c2cc(C(=O)NCC(C)(C)O)c(C)n2CC2CCCCC2)nc(C2(C)CC2)nc1C(C)(C)C [17/82] | 794 | 6.7 | 6.7 |  |  | 
11 | Cc1c(C(=O)NCC(C)(C)O)cc(-c2cc(C(C)(C)C)cc(C(=O)NC(C)(C)C)c2Cl)n1CC1CCCCC1 [17/367] | 5010 | 6.4 | 6.1 |  |  | 
12 | Cc1c(C(=O)NC2CCS(=O)(=O)CC2)cc(-c2ccc(S(=O)(=O)NC(C)(C)C)c(C(C)(C)C)c2)n1CC1CCCCC1 [17/92] |  |  |  | 1000 | 6.0/7.3/7.1 | 6.0/7.3/7.1
13 | Cc1c(C(=O)NCc2nnn[nH]2)cc(-c2cc(C(C)(C)C)cc(C3(C)CC3)c2)n1CC1CCCCC1 [17/71] | 1580 | 6.9 | 6.8 |  |  | 
14 | Cc1c(C(=O)NC2CC23CCOCC3)cc(-c2ccc(S(=O)(=O)NC(C)(C)C)c(C(F)(F)F)c2)n1CC1CCCCC1 (stereo not drawn) [17/210] | 158 | 7.9 | 8.1 |  |  | 
15 | Cc1c(C(=O)NC2CCOCC2)cc(-c2ccc(-c3ccnn3C(C)C)c(C(C)(C)O)c2)n1CC1CCCCC1 [Example 27, 1-(Cyclohexylmethyl)-5-(3-(2-hydroxypropan-2-yl)-4-(1-isopropyl-1H-pyrazol-5-yl)phenyl)-2-methyl-N-(tetrahydro-2H-pyran-4-yl)-1H-pyrrole-3-carboxamide] | 2000 | 6.4 | 6.5 |  |  | 
16 | Cc1c(C(=O)NCc2nc(C(=O)O)co2)cc(-c2cc(C(C)(C)C)c3c(c2)C2(CCO3)CC2)n1CC1CCCCC1 [17/16] | 3980 | 6.1 | 6.0 |  |  | 
17 | Cc1c(C(=O)NC2CCOCC2)cc(-c2ccc(C(=O)NCC3CCCCC3)c(C(C)(C)C)c2)n1CC1CCCCC1 [6/7] |  |  |  | 1000 | 6.0/6.5/6.4 | 6.0/6.5/6.4

Row | SMILES | IC50 [1, 2] [nM] | pIC50 (FF) (RORγ; [3]) | pIC50 (REN) (RORγ; [4]) | IC50 [1] [nM] | pIC50 (FF) (RORγ) | pIC50 (REN) (RORγ)
18 | Cc1cc(C(C)(C)C)cc(-c2cc(C(=O)NCC(C)(C)O)c(C)n2CC2CCCCC2)c1OC(F)F [17/192] | 1580 | 6.5 | 6.4 |  |  | 
19 | Cc1c(C(=O)NCCS(N)(=O)=O)cc(-c2cc(C(C)(C)C)cc(C(C)(C)C)c2)n1CC1CCCCC1 [1/9] |  |  |  | 316 | 6.5/6.6/6.7 | 6.5/6.6/6.7
20 | COC(C)(C)c1cc(-c2c(Cl)c(C(=O)N[C@H]3C[C@H](C(=O)O)C3)c(C)n2CC2CCCCC2)cc(C2(C)CC2)c1 [29/2] | 2510 | 7.3 | 7.1 |  |  | 
21 | Cc1c(C(=O)NC2COC2)cc(-c2cc(C(C)(C)C)cc(C(C)(C)CF)c2)n1CC1CCCCC1 [17/42] |  |  |  | 2000 | 5.7/7.5/7.6 | 5.7/7.5/7.6
22 | Cc1c(C(=O)N[C@H]2C[C@H](C(=O)O)C2)cc(-c2ccc(S(=O)(=O)NC(C)(C)C)c3sccc23)n1CC1CCCCC1 [17/184] | 794 | 6.9 | 7.1 |  |  | 
23 | Cc1c(C(=O)NC2CC23CCOCC3)cc(-c2ccc(S(=O)(=O)NC(C)(C)C)c(C(C)(C)C)c2)n1CC1CCCCC1 (stereo not drawn) [17/207] | 501 | 7.9 | 8.0 |  |  | 
24 | Cc1c(C(=O)NC2COC2)cc(-c2cc(C(C)(C)C)cc(C(C)(C)C)c2)n1S(=O)(=O)N1CCCCCC1 [7/4] | 200 | 7.1 | 7.1 |  |  | 
25 | Cc1c(C(=O)NCCC(C)(C)C(=O)O)cc(-c2ccc(S(=O)(=O)N[C@@H](C)C(F)(F)F)c(C(C)(C)C)c2)n1CC1CCCCC1 [17/152] | 1000 | 8.2 | 8.2 |  |  | 
26 | Cc1c(C(=O)NC2CCOCC2)cc(-c2ccc(-c3nnc(C(C)(C)C)o3)c(C(C)(C)C)c2)n1CC1CCCCC1 [17/251] |  |  |  | 501 | 6.3/6.9/6.9 | 6.3/6.9/6.9
27 | Cc1c(C(=O)N[C@H]2C[C@H](C(=O)O)C2)cc(-c2cc(C(=O)N[C@H](C)C(F)(F)F)cc(C3(C)CC3)c2)n1CC1CCCCC1 [17/359] | 3160 | 7.4 | 7.4 |  |  | 
28 | Cc1c(S(=O)(=O)NC(C)(C)C)ccc(-c2cc(C(=O)NCC(C)(C)C(N)=O)c(C)n2CC2CCCCC2)c1Cl [17/371] | 631 | 8.0 | 8.0 |  |  | 
29 | Cc1c(C(=O)NCCN2CCOCC2)cc(-c2cc(C(C)(C)C)cc(C(C)(C)C)c2)n1CC1CCCCC1 [1/70] |  |  |  | 631 | 6.2/6.6/6.6 | 6.2/6.6/6.6
30 | CC(C)(C)NS(=O)(=O)c1ccc(-c2cc(C(=O)NC3CCOCC3)c(F)n2CC2CCCCC2)cc1C(F)(F)F [20/1] | 251 | 7.1 | 7.3 |  |  | 
31 | Cc1c(C(=O)NC2COC2)cc(-c2ccc(S(=O)(=O)N(C)C(C)(C)C)c(C(C)(C)C)c2)n1CC1CCCCC1 [9/5] | 316 | 7.2 | 7.2 |  |  | 
32 | Cc1c(C(=O)NC23CCC(C(=O)O)(CC2)CC3)cc(-c2cc(C(C)(C)O)cc(C3(C)CC3)c2)n1CC1CCCCC1 [17/302] | 1580 | 7.3 | 7.2 |  |  | 
33 | CCN(C(C)(C)C)S(=O)(=O)c1ccc(-c2cc(C(=O)NC3CCOCC3)c(C)n2CC2CCCCC2)cc1C(F)(F)F [17/85] |  |  |  | > 20000 | <4.7/7.4/7.5 | <4.7/7.4/7.5
34 | Cc1c(C(=O)NC2COC2)cc(-c2cc(C(C)(C)C)c3c(c2)C(C)(C)CC(=O)N3)n1CC1CCCCC1 [1/18] | 631 | 7.1 | 7.0 |  |  | 
